# Measurements published in patent US20080280997A1, “Novel Pharmaceutical or Cosmetic Carriers Containing Cyclic Acetals” (GATTEFOSSE SAS, priority 2004, published 2008).
# “Also recorded” adds a separate entry of the source.
# How the values were obtained:
# Assay type in all cases: physicochemical
# [1] = Miscibility in water
# Text: The BDM molecule is produced following the same process as that used in example 1 (without solvents), using pentanal and glycerol. The substance obtained is confirmed by GC-MS analysis. Its water solubility is approximately 2 g in 100 g water. Beyond that, turbidity appears.
# [2] = Compatibility of EDM with gelling agents
# Text: We tested the influence of 5% EDM in gels produced using gelling agents with different chemical natures.
# [3] = Solubility of EDM in oils, alcohols and water
# Text: 3/ Solubility of EDM in Oils and Alcohols
# The solubility of EDM is studied in various oils, alcohols and water. The solubility results are expressed in g of EDM incorporable into 100 g of oil or ester before turbidity appears.
# [4] = Solubilisation of UV filters with ETP, EDM and PDM; conditions: for Solubility of 1,2-butyl methoxydibenzoylmethane in the solvent: UV filter 1,2-butyl methoxydibenzoylmethane; for Solubility of Benzophenone-3 in the solvent: UV filter Benzophenone-3
# Method: 4/ Solubilisation of Filters with ETP, EDM and PDM
# The solubility of two organic UV filters (benzophenone-3 et 1,2-butyl methoxydibenzoylmethane) are assessed in ETP, EDM and PDM.
# • homogenise the mixture for 30 seconds in a vortex mixer, • apply ultrasounds for 15 minutes (repeat if the filter is not miscible up to a maximum of 60 minutes), • for the following percentages, an identical quantity of UV filter is always added to a set initial quantity of solvent.
# Solubility is expressed in g of filter soluble in 100 g of final solution.
# [5] = Solubility in oils; conditions: before turbidity appears
# [6] = Stability of the pH of an EDM solution; conditions: 5% EDM
# Method: The stability of solutions at different pHs after adding 5% EDM was studied.
# The different solutions were prepared: • using citric acid and Na2HPO4 for pHs between 3 and 7, • using boric acid, KCl and NaOH for pHs between 8 and 10.
# [7] = Solubilisation of non-water soluble active ingredients in water assisted by solvent
# Text: Five hydrophobic active ingredients were solubilised in water using EDM.
# The following table indicates what mass of solvent (g) must be added to solubilise 1 g of a mixture comprising 98% water and 2% active ingredient.
# The smaller the quantity of solvent to be added, the greater its solubilising power.
# [8] = Solubilisation of active ingredients in EDM; conditions: solubility in EDM
# Method: 5/ Solubilisation of Active Ingredients in EDM
# The solubility of the various active ingredients in EDM was studied. It is expressed in g of active ingredient soluble in 100 ml of EDM.
# [9] = buffer solution initial pH 4.25
# [10] = buffer solution initial pH 6.15
# [11] = buffer solution initial pH 7.15
# [12] = buffer solution initial pH 10.0
# [13] = active ingredient Bisabolol nat.
# [14] = active ingredient Eusolex 4360 (Benzophenone 3)
# [15] = active ingredient HE eucalyptus (Eucalyptus globulus leaf oil)
# [16] = active ingredient Vitamin E (Tocopherol)
compound,measurement,setting,value
"2-butyl-1,3-dioxolane-4-hydroxymethyl and 2-butyl-1,3-dioxan-5-ol [BDM]",water solubility,"[1]; beyond that, turbidity appears",approximately 2 g in 100 g water
same,Miscibility in water,[1],not miscible in water; also recorded: Non-miscible
"2-ethyl-4-hydroxymethyl-1,3-dioxolane and 2-ethyl-1,3-dioxan-5-ol [EDM]",Miscibility in water,[1],Miscible
same,Viscosity variation,"[2]; 5% EDM in gels of Blanose 7HF, Jaguar HP 105, Keltrol T, Natrosol 250HX (cell wraps: Small variation)",Small
same,Viscosity drop,"[2]; 5% EDM in gels of Novemer EC-1, Sepigel 305",Drop >30%
same,Breaking of gels on adding EDM,"[2]; 5% EDM, gelling agents of the different families tested",none of the gels formulated is broken
same,EDM mass,[3]; in Apricot kernel oil,>100 g of EDM incorporable into 100 g of oil or ester
same,EDM mass,[3]; in Arlamol E (PPG-15 Stearyl Ether),>100 g of EDM incorporable into 100 g of oil or ester
same,EDM mass,[3]; in Butylene Glycol,>100 g of EDM incorporable into 100 g of oil or ester
same,EDM mass,[3]; in Castor oil,>100 g of EDM incorporable into 100 g of oil or ester
same,EDM mass,[3]; in DPPG (Propylene glycol dipelargonate),>100 g of EDM incorporable into 100 g of oil or ester
same,EDM mass,[3]; in Glycerine,>100 g of EDM incorporable into 100 g of oil or ester
same,EDM mass,[3]; in IPM (Isopropyl myristate),>100 g of EDM incorporable into 100 g of oil or ester
same,EDM mass,[3]; in Labrafac CC (Caprylic/capric triglyceride),>100 g of EDM incorporable into 100 g of oil or ester
same,EDM mass,[3]; in PEG-300,>100 g of EDM incorporable into 100 g of oil or ester
same,EDM mass,[3]; in Propylene Glycol,>100 g of EDM incorporable into 100 g of oil or ester
same,EDM mass,[3]; in Tegosoft TN (C12/C15 alkyl benzoate),>100 g of EDM incorporable into 100 g of oil or ester
same,EDM mass,[3]; in Water,>100 g of EDM incorporable into 100 g of oil or ester
same,"Solubility of 1,2-butyl methoxydibenzoylmethane in the solvent",[4],>32 g of filter soluble in 100 g of final solution
same,Solubility of Benzophenone-3 in the solvent,[4],>40 g of filter soluble in 100 g of final solution
same,Solubility in Medium-chain triglyceride (MCT),[5],>100 g of solvent solubilised in 100 g of oil or ester
same,Solubility in Octyldodecanol myristate (ODM),[5],50 g of solvent solubilised in 100 g of oil or ester
same,Solubility in Sunflower oil,[5],>100 g of solvent solubilised in 100 g of oil or ester
same,pH after adding EDM,[6]; buffer solution initial pH 3.1,3.15
same,pH at 1 month,[6]; buffer solution initial pH 3.1,3
same,pH after adding EDM,[6]; [9],4.3
same,pH at 1 month,[6]; [9],4.2
same,pH after adding EDM,[6]; buffer solution initial pH 5.1,5.15
same,pH at 1 month,[6]; buffer solution initial pH 5.1,5.1
same,pH after adding EDM,[6]; [10],6.2
same,pH at 1 month,[6]; [10],6.1
same,pH after adding EDM,[6]; [11],7.2
same,pH at 1 month,[6]; [11],7.1
same,pH after adding EDM,[6]; buffer solution initial pH 8.0,8.0
same,pH at 1 month,[6]; buffer solution initial pH 8.0,8.0
same,pH after adding EDM,[6]; buffer solution initial pH 9.0,9.1
same,pH at 1 month,[6]; buffer solution initial pH 9.0,9.0
same,pH after adding EDM,[6]; [12],10.0
same,pH at 1 month,[6]; [12],10.0
same,pH variations observed,"[6]; buffer solutions pH 3 to 10, not significant",approximately 0.1 pH units
same,Mass of solvent to solubilise 1 g of mixture 98% water and 2% active ingredient,[7]; [13],0.9 g
same,Mass of solvent to solubilise 1 g of mixture 98% water and 2% active ingredient,[7]; [14],1.7 g
same,Mass of solvent to solubilise 1 g of mixture 98% water and 2% active ingredient,[7]; [15],1 g
same,Mass of solvent to solubilise 1 g of mixture 98% water and 2% active ingredient,[7]; active ingredient Menthol,0.7 g
same,Mass of solvent to solubilise 1 g of mixture 98% water and 2% active ingredient,[7]; [16],2.0 g
"2-propyl-4-hydroxymethyl-1,3-dioxolane with 2-propyl-1,3-dioxan-5-ol [PDM]",Miscibility in water,[1],Miscible
same,"Solubility of 1,2-butyl methoxydibenzoylmethane in the solvent",[4],22 g of filter soluble in 100 g of final solution
same,Solubility of Benzophenone-3 in the solvent,[4],18 g of filter soluble in 100 g of final solution
same,Solubility in Medium-chain triglyceride (MCT),[5],>100 g of solvent solubilised in 100 g of oil or ester
same,Solubility in Octyldodecanol myristate (ODM),[5],100 g of solvent solubilised in 100 g of oil or ester
same,Solubility in Sunflower oil,[5],>100 g of solvent solubilised in 100 g of oil or ester
"CO[C@H]1CO[C@H]2[C@@H]1OC[C@H]2OC [Arlasolve DMI, Dimethyl Isosorbide, reference compound]",Mass of solvent to solubilise 1 g of mixture 98% water and 2% active ingredient,[7]; [13],2.3 g
same,Mass of solvent to solubilise 1 g of mixture 98% water and 2% active ingredient,[7]; [14],2.3 g
same,Mass of solvent to solubilise 1 g of mixture 98% water and 2% active ingredient,[7]; [15],2.2 g
same,Mass of solvent to solubilise 1 g of mixture 98% water and 2% active ingredient,[7]; active ingredient Menthol,1.7 g
same,Mass of solvent to solubilise 1 g of mixture 98% water and 2% active ingredient,[7]; [16],5.0 g
"CC(C)=CCC[C@](C)(O)C1CC=C(C)CC1 (some centres unmarked) [Bisabolol nat., Bisabolol]",Mass of active ingredient (g),[8],>100 g of active ingredient soluble in 100 ml of EDM
"CCC1(CO)COC(C)OC1 (centres unmarked) [ETP, 2-methyl-5-ethyl-5-hydroxymethyl-1,3-dioxane]",Miscibility in water,[1],Miscible
same,"Solubility of 1,2-butyl methoxydibenzoylmethane in the solvent",[4],5 g of filter soluble in 100 g of final solution
same,Solubility of Benzophenone-3 in the solvent,[4],35 g of filter soluble in 100 g of final solution
same,Solubility in Medium-chain triglyceride (MCT),[5],>100 g of solvent solubilised in 100 g of oil or ester
same,Solubility in Octyldodecanol myristate (ODM),[5],100 g of solvent solubilised in 100 g of oil or ester
same,Solubility in Sunflower oil,[5],>100 g of solvent solubilised in 100 g of oil or ester
CC1CCC(C(C)C)C(O)C1 (centres unmarked) [Menthol],Mass of active ingredient (g),[8],>100 g of active ingredient soluble in 100 ml of EDM
"CCCCC(CC)COC(=O)C=Cc1ccc(OC)cc1 (centres unmarked) [Parsol MCX, Ethylhexyl methoxycinnamate]",Mass of active ingredient (g),[8],>100 g of active ingredient soluble in 100 ml of EDM
Glycerol formal [reference compound],Miscibility in water,[1],Miscible
same,Solubility in Medium-chain triglyceride (MCT),[5],<12 g of solvent solubilised in 100 g of oil or ester
same,Solubility in Octyldodecanol myristate (ODM),[5],<12 g of solvent solubilised in 100 g of oil or ester
same,Solubility in Sunflower oil,[5],12 g of solvent solubilised in 100 g of oil or ester
Retinal [Vitamin A],Mass of active ingredient (g),[8],>100 g of active ingredient soluble in 100 ml of EDM
Tocopherol [Vitamin E],Mass of active ingredient (g),[8],>100 g of active ingredient soluble in 100 ml of EDM
